Experimental data taken from patent US20230265614A1, “WATER INSOLUBLE, HIGH MELTING POINT SACCHARIDE FATTY ACID ESTERS (SFAE)” (GREENTECH GLOBAL PTE. LTD., priority 2021, published 2023).

Assay: Solubility in water at 25° C. of specific SFAEs
Assay type: physicochemical
Settings: water insoluble = does not dissolve in water at 25° C.

Substance | Solubility in Water at 25° C.
raffinose monolaurate | soluble
trehalose monostearate | Insoluble
trehalose dilaurate | Insoluble
trehalose dipalmitate | Insoluble
trehalose monolaurate | soluble
trehalose monomyristate | Insoluble
trehalose distearate | Insoluble
raffinose monostearate | soluble
trehalose dimyristate | Insoluble
trehalose monopalmitate | Insoluble
